Patent US11739098B2 (BRISTOL-MYERS SQUIBB COMPANY, priority 2017, dated 2023)

What was measured:
Type in all cases: cell-based
[1] = target: T1, human TLR7 (Homo sapiens, UniProt Q9NYK1); experiment: TLR7 inhibition reporter assay (HEK-Blue cells, SEAP reporter, gardiquimod stimulation); details: HEK-Blue cells overexpressing human TLR7, SEAP reporter, gardiquimod 7.5 μM
T1 construct: host or cells: HEK-Blue cells (HEK293-derived reporter line)
T1 sequence (Q9NYK1 27-1049): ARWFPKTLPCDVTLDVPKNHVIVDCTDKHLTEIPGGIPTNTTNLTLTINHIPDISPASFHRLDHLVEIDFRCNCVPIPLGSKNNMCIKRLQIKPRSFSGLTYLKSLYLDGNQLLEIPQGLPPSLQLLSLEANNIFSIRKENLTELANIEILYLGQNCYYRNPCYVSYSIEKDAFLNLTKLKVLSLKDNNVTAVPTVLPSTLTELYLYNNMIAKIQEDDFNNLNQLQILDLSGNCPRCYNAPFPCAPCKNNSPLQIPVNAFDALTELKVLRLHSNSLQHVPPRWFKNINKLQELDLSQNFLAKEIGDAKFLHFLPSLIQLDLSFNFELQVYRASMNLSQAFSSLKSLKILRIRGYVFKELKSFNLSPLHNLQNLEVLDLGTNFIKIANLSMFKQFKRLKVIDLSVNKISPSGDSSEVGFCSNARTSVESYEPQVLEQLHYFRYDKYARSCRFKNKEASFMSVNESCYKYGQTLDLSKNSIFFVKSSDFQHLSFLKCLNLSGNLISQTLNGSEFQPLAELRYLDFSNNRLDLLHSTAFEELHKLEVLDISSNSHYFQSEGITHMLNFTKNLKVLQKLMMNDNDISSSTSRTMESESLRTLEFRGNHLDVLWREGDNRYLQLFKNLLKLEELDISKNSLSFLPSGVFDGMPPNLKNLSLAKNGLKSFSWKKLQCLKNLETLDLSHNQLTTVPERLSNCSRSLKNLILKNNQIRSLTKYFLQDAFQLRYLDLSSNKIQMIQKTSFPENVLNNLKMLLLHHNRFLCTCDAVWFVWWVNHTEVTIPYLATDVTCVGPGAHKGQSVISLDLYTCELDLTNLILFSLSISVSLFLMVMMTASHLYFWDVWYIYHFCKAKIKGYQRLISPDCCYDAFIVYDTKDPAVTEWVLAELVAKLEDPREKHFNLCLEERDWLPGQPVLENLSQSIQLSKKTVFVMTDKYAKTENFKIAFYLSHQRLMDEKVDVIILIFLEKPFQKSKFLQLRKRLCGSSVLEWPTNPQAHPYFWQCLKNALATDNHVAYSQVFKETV
How it was run: (§1)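 Read-out is SEAP activity in HEK-Blue detection medium after 22 h at 37 °C, converted to percent inhibition against agonist-plus-DMSO and reference-inhibitor controls. Cells saw compound (0.05 nM–50 μM, 30 min, room temperature) before gardiquimod 7.5 μM, R848 15.9 μM or ODN2006 5 nM for TLR7, TLR8 and TLR9, respectively.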

[2] = target: T2, human TLR8 (Homo sapiens, UniProt Q9NR97); experiment: TLR8 inhibition reporter assay (HEK-Blue cells, SEAP reporter, R848 stimulation); details: HEK-Blue cells overexpressing human TLR8, SEAP reporter, R848 15.9 μM
T2 construct: host or cells: HEK-Blue cells (HEK293-derived reporter line)
T2 sequence (Q9NR97 27-1041): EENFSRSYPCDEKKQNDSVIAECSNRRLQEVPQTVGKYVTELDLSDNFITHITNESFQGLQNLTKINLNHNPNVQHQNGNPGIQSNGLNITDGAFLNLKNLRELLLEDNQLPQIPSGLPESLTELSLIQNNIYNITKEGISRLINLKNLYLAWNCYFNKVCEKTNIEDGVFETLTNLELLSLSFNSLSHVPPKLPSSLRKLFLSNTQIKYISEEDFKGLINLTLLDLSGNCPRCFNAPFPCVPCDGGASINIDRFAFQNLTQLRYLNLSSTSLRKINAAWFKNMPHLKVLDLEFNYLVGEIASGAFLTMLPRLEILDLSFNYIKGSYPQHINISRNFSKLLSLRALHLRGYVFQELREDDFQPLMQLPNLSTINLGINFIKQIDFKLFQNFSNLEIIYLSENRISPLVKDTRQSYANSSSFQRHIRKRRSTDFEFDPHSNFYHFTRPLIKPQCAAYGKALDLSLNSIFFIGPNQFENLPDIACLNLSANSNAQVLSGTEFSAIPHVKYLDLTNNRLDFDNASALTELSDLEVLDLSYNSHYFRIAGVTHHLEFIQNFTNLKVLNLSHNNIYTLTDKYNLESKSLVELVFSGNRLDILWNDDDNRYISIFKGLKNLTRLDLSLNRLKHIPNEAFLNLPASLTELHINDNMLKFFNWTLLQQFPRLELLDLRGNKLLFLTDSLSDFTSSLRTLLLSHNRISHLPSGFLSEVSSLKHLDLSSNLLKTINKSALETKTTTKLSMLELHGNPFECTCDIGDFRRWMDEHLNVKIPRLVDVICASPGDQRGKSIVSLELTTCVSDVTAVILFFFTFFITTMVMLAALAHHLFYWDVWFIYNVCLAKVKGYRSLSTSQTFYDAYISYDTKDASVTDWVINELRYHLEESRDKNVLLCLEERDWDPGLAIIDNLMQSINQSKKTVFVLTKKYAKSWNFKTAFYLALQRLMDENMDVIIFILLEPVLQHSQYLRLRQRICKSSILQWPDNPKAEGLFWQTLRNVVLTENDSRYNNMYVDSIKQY
How it was run: as §1

[3] = target: T3, human TLR9 (Homo sapiens, UniProt Q9NR96); experiment: TLR9 inhibition reporter assay (HEK-Blue cells, SEAP reporter, ODN2006 stimulation); details: HEK-Blue cells overexpressing human TLR9, SEAP reporter, ODN2006 5 nM
T3 construct: host or cells: HEK-Blue cells (HEK293-derived reporter line)
T3 sequence (Q9NR96 26-1032): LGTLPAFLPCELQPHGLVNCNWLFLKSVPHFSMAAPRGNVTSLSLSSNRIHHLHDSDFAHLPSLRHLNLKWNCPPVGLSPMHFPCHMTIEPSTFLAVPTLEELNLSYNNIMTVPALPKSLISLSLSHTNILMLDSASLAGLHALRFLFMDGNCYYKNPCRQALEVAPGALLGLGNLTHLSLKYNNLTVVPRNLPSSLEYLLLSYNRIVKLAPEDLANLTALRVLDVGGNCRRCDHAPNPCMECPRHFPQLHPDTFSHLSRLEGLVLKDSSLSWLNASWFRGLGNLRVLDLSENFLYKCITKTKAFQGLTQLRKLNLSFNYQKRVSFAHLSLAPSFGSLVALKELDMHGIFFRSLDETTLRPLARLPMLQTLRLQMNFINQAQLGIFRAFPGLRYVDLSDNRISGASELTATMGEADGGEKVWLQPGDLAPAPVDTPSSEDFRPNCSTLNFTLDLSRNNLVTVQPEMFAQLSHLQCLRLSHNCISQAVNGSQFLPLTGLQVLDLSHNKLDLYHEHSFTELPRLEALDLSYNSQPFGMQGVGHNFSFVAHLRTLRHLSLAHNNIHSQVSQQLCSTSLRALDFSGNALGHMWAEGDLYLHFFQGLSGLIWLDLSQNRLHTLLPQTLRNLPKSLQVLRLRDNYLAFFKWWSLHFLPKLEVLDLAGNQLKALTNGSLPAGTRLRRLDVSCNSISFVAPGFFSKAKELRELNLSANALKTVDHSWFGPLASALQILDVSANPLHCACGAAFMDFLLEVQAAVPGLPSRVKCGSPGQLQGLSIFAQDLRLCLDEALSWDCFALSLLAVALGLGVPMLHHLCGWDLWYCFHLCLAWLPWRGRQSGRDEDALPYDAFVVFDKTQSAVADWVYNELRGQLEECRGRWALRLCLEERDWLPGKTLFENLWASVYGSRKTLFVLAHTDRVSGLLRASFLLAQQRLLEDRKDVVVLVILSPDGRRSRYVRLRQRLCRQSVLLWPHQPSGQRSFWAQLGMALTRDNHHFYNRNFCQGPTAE
How it was run: as §1

IC50 [1] [nM]	IC50 [2] [nM]	IC50 [3] [nM]	Structure (SMILES)
1000 to 50000	100 to 1000	1000 to 50000	CNCCN1CCC(c2ccc3[nH]c(-c4ccc5c(c4)CCO5)c(C)c3c2)CC1 [Example 669, 2-(4-(2-(2,3-dihydrobenzofuran-5-yl)-3-methyl-1H-indol-5-yl)piperidin-1-yl)-N-methylethan-1-amine]
1000 to 50000	1000 to 50000	100 to 1000	CC(C)c1c(-c2ccnc3[nH]ncc23)[nH]c2ccc(C3CCN(CCCN4CCOCC4)CC3)cc12 [Example 857, 4-(3-(4-(3-isopropyl-2-(1H-pyrazolo[3,4-b]pyridin-4-yl)-1H-indol-5-yl)piperidin-1-yl)propyl)morpholine]
1000 to 50000	> 3130	100 to 1000	CNCCN1CCC(c2ccc3[nH]c(-c4cncc5ccccc45)c(C)c3c2)CC1 [Example 663, 2-(4-(2-(isoquinolin-4-yl)-3-methyl-1H-indol-5-yl)piperidin-1-yl)-N-methylethan-1-amine]
< 100	< 100	100 to 1000	Cc1cc(-c2[nH]c3ccc(C4CCN(C5CCOCC5)CC4)cc3c2C(C)C)cc2cncn12 [Example 707, 7-(3-isopropyl-5-(1-(tetrahydro-2H-pyran-4-yl)piperidin-4-yl)-1H-indol-2-yl)-5-methylimidazo[1,5-a]pyridine]
< 100	< 100	1000 to 50000	Cc1cc(-c2[nH]c3ccc(C4CCN(C(=O)C[C@@H](C)O)CC4)cc3c2C(C)C)cn2nnnc12 [Example 594, (R)-3-hydroxy-1-(4-(3-isopropyl-2-(8-methyltetrazolo[1,5-a]pyridin-6-yl)-1H-indol-5-yl)piperidin-1-yl)butan-1-one]
< 100	< 100	1000 to 50000	CC(C)c1c(-c2ccc3ncnn3n2)[nH]c2ccc(C3CCNCC3)cc12 [Example 242, 6-(3-isopropyl-5-(piperidin-4-yl)-1H-indol-2-yl)-[1,2,4]triazolo[1,5-b]pyridazine]
1000 to 50000	> 3130	1000 to 50000	CC(C)c1c(-c2cnc3ccnn3c2)[nH]c2ccc(C3CCN(CC(=O)N(C)C)CC3)cc12 [Example 359, 2-(4-(3-isopropyl-2-(pyrazolo[1,5-a]pyrimidin-6-yl)-1H-indol-5-yl)piperidin-1-yl)-N,N-dimethylacetamide]
< 100	< 100	1000 to 50000	COc1cc(-c2[nH]c3ccc(C4CCN(Cc5cnn[nH]5)CC4)cc3c2C(C)C)nn2ncnc12 [Example 860, 6-(5-(1-((1H-1,2,3-triazol-5-yl)methyl)piperidin-4-yl)-3-isopropyl-1H-indol-2-yl)-8-methoxy-[1,2,4]triazolo[1,5-b]pyridazine]
100 to 1000	> 3130	1000 to 50000	CC(C)(O)CC(=O)N1CCC(c2ccc3[nH]c(-c4cc(F)c5nccn5c4)c(CC(F)F)c3c2)CC1 [Example 606, 1-(4-(3-(2,2-difluoroethyl)-2-(8-fluoroimidazo[1,2-a]pyridin-6-yl)-1H-indol-5-yl)piperidin-1-yl)-3-hydroxy-3-methylbutan-1-one]
< 100	< 100	1000 to 50000	Cc1cc(-c2[nH]c3ccc(C4CCN(C(=O)CN(C)C)CC4)cc3c2C(C)C)cn2cc(C(=O)N(C)CCO)nc12 [Example 494, 6-(5-(1-(dimethylglycyl)piperidin-4-yl)-3-isopropyl-1H-indol-2-yl)-N-(2-hydroxyethyl)-N,8-dimethylimidazo[1,2-a]pyridine-2-carboxamide]
< 100	< 100	1000 to 50000	COCCN1CCC(c2ccc3[nH]c(-c4ccc(C#N)c5ncccc45)c(C(C)C)c3c2)CC1 [Example 778, 5-(3-isopropyl-5-(1-(2-methoxyethyl)piperidin-4-yl)-1H-indol-2-yl)quinoline-8-carbonitrile]
100 to 1000	100 to 1000	1000 to 50000	Cc1cc(-c2[nH]c3ccc(C4CCNCC4)cc3c2C(C)C)cn2cc(C(=O)NCC(C)(C)O)nc12 [Example 270, N-(2-hydroxy-2-methylpropyl)-6-(3-isopropyl-5-(piperidin-4-yl)-1H-indol-2-yl)-8-methylimidazo[1,2-a]pyridine-2-carboxamide]
< 100	< 100	1000 to 50000	Cc1nnn2ccc(-c3[nH]c4ccc(C5CCN(Cc6ncn(C)n6)CC5)cc4c3C(C)C)cc12 [Example 889, 5-(3-isopropyl-5-(1-((1-methyl-1H-1,2,4-triazol-3-yl)methyl)piperidin-4-yl)-1H-indol-2-yl)-3-methyl-[1,2,3]triazolo[1,5-a]pyridine]
< 100	< 100	100 to 1000	Cc1cc(-c2[nH]c3ccc(C4CCN(Cc5ccn(C)n5)CC4)cc3c2C(C)C)cc2cnnn12 [Example 891, 5-(3-isopropyl-5-(1-((1-methyl-1H-pyrazol-3-yl)methyl)piperidin-4-yl)-1H-indol-2-yl)-7-methyl-[1,2,3]triazolo[1,5-a]pyridine]
